Measured values as given in patent US20070142266A1, “Combination comprising a P-gp inhibitor and an anti-epileptic drug” (priority 2001, published 2007).

Experiments:
[1] = In vivo microdialysis in adult female Wistar rats: extracellular (ECF) phenytoin levels in cerebral cortex in the absence of a P-gp inhibitor; conditions: rat, cerebral cortex extracellular fluid (microdialysate), ip, 50 mg/kg phenytoin i.p., after maximum levels reached, read-out: average half-life of decrease of ECF concentrations of phenytoin (converted)
Experimental: (§1) In vivo microdialysis in Adult Female Wistar Rats
(§2) The combination of phenytoin (Aldrich, Steinheim, Germany) and a P-gp inhibitor, e.g. PSC833) is given via the microdialysis probe in the right frontal cortex, while a probe in the left cortex served as a vehicle control site. Perfusion with the P-gp inhibitor started 15 to 60 minutes prior to i.p. administration of 50 mg/kg phenytoin. • Animals: Adult female Wistar rats (Harlan-Winkelmann, Germany) kept under controlled environmental conditions are used in the study. • Implantation of guide cannulae: Guide cannulae (CMA/12 polyurethane, Camegie Medicine, Sweden) are implanted into the left and right frontal (motor) cortex under anesthesia. The tips of the guide are positioned at rostral +3.2, lateral +3.2 or 3.2 and ventral 2.0 mm to bregma, coordinates according to Paxinos and Watson, The rat brain in stereotaxic coordinates, Sydney, Academic Press, 1986. • Microdialysis procedure: Microdialysis experiments are performed following a recovery period of at least 3 days after surgery. The microdialysis probe is lowered through the guide cannula to a depth of 5.0 mm according to bregma. 14 to 16 h after insertion, perfusion of the probe is started using Ringer solution (in mM 147 Na^+, 2.3 Ca^2+, 4.0 K^+and 155.6 Cr, pH 6.0). […]

[2] = system: P-glycoprotein (P-gp); assay: In vivo microdialysis in adult female Wistar rats: effect of local P-gp inhibitor perfusion on ECF levels of phenytoin in cerebral cortex; set-up: species or system rat
Experimental: as §1, §2

Row | SMILES | half-life [1] [h] | increase of ECF levels of phenytoin above control (ECF plasma ratio of treated site vs vehicle treated controls) ([2]; 2 mM PSC833 via microdialysis probe, phenytoin 50 mg/kg i.p., ECF plasma ratio comparison) | maximum increase of ECF levels of phenytoin compared to untreated site ([2]; 2 mM PSC833 via right microdialysis probe started 15 min before phenytoin 50 mg/kg i.p., left cortex vehicle site) [%]
1 | O=C1NC(=O)C(c2ccccc2)(c2ccccc2)N1 [phenytoin, 5,5-diphenyl-2,4-imidazolidinedione] | ~4 | – | –
2 | C/C=C/C[C@@H](C)C(=O)[C@H]1C(=O)N[C@@H](C(C)C)C(=O)N(C)CC(=O)N(C)[C@@H](CC(C)C)C(=O)N[C@@H](C(C)C)C(=O)N(C)[C@@H](CC(C)C)C(=O)N[C@@H](C)C(=O)N[C@H](C)C(=O)N(C)[C@@H](CC(C)C)C(=O)N(C)[C@@H](CC(C)C)C(=O)N(C)[C@@H](C(C)C)C(=O)N1C [PSC833, [3′-desoxy-3′-oxo-MeBmt]^1-[Val]^2-Ciclosporin A] | – | about 150% | 70±20
